Structures are written as SMILES. Read-outs that look alike come from different tables or passages of the source. Some results are limits rather than exact numbers.

The nature of series [1]: Pharmacokinetics in SD Rats. The class given is in vivo, rat. On the procedure: 3. Pharmacokinetics of the Nectin-4/CD137 Heterotandem BCY11863 in SD Rats
Male SD Rats were dosed with the Nectin-4/CD137 heterotandem BCY11863 formulated in 25 mM Histidine HCl, 10% sucrose pH 7 by IV bolus, IV infusion (15 minutes) or subcutaneously. Serial bleeding (about 80 μL blood/time point) was performed via submandibular or saphenous vein at each time point. All blood samples were immediately transferred into prechilled microcentrifuge tubes containing 2 μL K2-EDTA (0.5M) as anti-coagulant and placed on wet ice. Blood samples were immediately processed for plasma by centrifugation at approximately 4° C., 3000 g. The precipitant including internal standard was immediately added into the plasma, mixed well and centrifuged at 12,000 rpm, 4° C. for 10 minutes. The supernatant was transferred into pre-labeled polypropylene microcentrifuge tubes, and then quick-frozen over dry ice. The samples were stored at […] or below as needed until analysis. 7.5 μL of the supernatant samples were directly injected for LC-MS/MS analysis using an Orbitrap Q Exactive in positive ion mode to determine the concentrations of analyte. Plasma concentration versus time data were analyzed by non-compartmental approaches using the Phoenix WinNonlin 6.3 software program. C0, CI, Vdss, T½, AUC(0-last), AUC(0-inf), MRT(0-last), MRT(0-inf) and graphs of plasma concentration versus time profile were reported.

The target in another series is T1, cyno CD137 (Macaca fascicularis, UniProt A9YYE7).
T1 construct: extracellular domain: SPR data
In words: SPR, biotinylated analogue captured on chip, binding to CD137 extracellular domain. On the technique in general: SPR reads the build-up and loss of mass on a sensor chip optically.

For a further series, the target named is T2, human CD137 (Homo sapiens, UniProt Q07011).
T2 construct: extracellular domain: SPR data
Described as above.

In series [2] the test system is 5484 full-length human plasma membrane proteins and secreted proteins expressed in HEK293 cells. In words: Retrogenix cell microarray off-target screening. The series is classed as binding. The settings on record: 1 μM test peptide. On the procedure: Retrogenix microarray screening: Retrogenix's cell microarray technology was used to screen for specific off-target binding interactions of a biotinylated BCY11863 known as BCY13582.
Under these conditions, the test peptide was screened for binding against human HEK293 cells, individually expressing 5484 full-length human plasma membrane proteins and secreted proteins.
Each primary hit was re-expressed, along with two control receptors (TGFBR2 and EGFR), and re-tested with 1 μM BCY13582 test peptide, 1 μM BCY13582 test peptide in the presence of 100 μM BCY11863, and other positive and negative control treatments (FIG. 4). […] These were untethered and tethered forms of Nectin-4, and CD137—the primary targets.

Setting [3] is: in vivo, SD rat plasma, analyte after 100 mg/kg IV BCY11863.
The mark [4] stands for this setting: in vivo, SD rat plasma, analyte after 100 mg/kg IV BCY11863, read-out: T1/2 (converted).

T1 sequence (A9YYE7 24-186): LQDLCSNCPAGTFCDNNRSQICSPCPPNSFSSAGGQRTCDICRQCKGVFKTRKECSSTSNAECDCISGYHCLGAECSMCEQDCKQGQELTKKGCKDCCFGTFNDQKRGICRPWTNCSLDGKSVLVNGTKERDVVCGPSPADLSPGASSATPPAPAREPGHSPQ
T2 sequence (Q07011 24-186 limits assumed): as the sequence (A9YYE7 24-186) above, with L4P, S19N, K50R, I66T, S67P, Y69F, E75G, A149V counted along it

On to `CCCC[C@@H]1NC(=O)[C@H](Cc2ccc(O)cc2)NC(=O)[C@@H]2CCCN2C(=O)[C@H](CC(=O)O)NC(=O)[C@H](C)NC(=O)[C@H](Cc2ccccc2)NC(=O)[C@@H]2CSCCC(=O)N3CN(CN(C3)C(=O)CCSC[C@@H](C(=O)N[C@@H](C)C(N)=O)NC1=O)C(=O)CCSC[C@H](NC(C)=O)C(=O)N[C@@H](CC(C)(C)C)C(=O)N1CCC[C@H]1C(=O)N[C@@H](CCC(=O)O)C(=O)N[C@H](CCCCNC(=O)CCc1cn(CCOCCOCCOCCN(CCOCCOCCOCCC(=O)N[C@H]3CSCCC(=O)N4CN5CN(C4)C(=O)CCSC[C@H](NC(=O)[C@@H](CC(=O)O)NC(=O)[C@H](Cc4cccc6ccccc46)NC(=O)[C@@H]4CCCN4C3=O)C(=O)N[C@@H](CCSC)C(=O)N[C@@H](CCCCNC(=N)N)C(=O)N[C@@H](CC(=O)O)C(=O)N[C@@H](Cc3c[nH]c4ccccc34)C(=O)N[C@@H](CO)C(=O)N[C@@H]([C@@H](C)O)C(=O)N3CCC[C@H]3C(=O)N3C[C@H](O)C[C@H]3C(=O)N[C@@H](Cc3c[nH]c4ccccc34)C(=O)N[C@H](C(N)=O)CSCCC5=O)CCOCCOCCOCCn3cc(CCC(=O)NCCCC[C@H]4NC(=O)[C@H](CCC(=O)O)NC(=O)[C@@H]5CCCN5C(=O)[C@H](CC(C)(C)C)NC(=O)[C@@H](NC(C)=O)CSCCC(=O)N5CN6CN(C5)C(=O)CCSC[C@H](NC(=O)[C@H](Cc5ccc(O)cc5)NC(=O)[C@@H]5CCCN5C4=O)C(=O)N[C@@H](Cc4ccccc4)C(=O)N[C@@H](C)C(=O)N[C@@H](CC(=O)O)C(=O)N4CCC[C@H]4C(=O)N[C@@H](Cc4ccc(O)cc4)C(=O)N[C@@H](CCCC)C(=O)N[C@H](C(=O)N[C@@H](C)C(N)=O)CSCCC6=O)nn3)nn1)C(=O)N1CCC[C@H]1C(=O)N[C@@H](Cc1ccc(O)cc1)C(=O)N2` [BCY11863], for which the “Conversion to BCY14602” value in series [1] (SD rats, IV 100 mg/kg, first 24 h of the study) is given as “No significant conversion to BCY14602”. For the same compound, in series [1] (SD rats, IV administration, 100 mg/kg), the “Fraction metabolized to BCY15155” value is listed as less than 1%. For the same compound, the AUC in series [1] (setting [3]) amounted to 130000 ng·h/mL. Further, the Cmax in series [1] (setting [3]) worked out at 280 µg/mL. The half-life in series [1] (setting [4]) was 5.4 h; in series [1] (rat, in vivo, SD rats, 3.2 mg/kg IV Inf (15 min), read-out: T½ (converted)), 3.1 h; in series [1] (rat, in vivo, SD rats, 6.3 mg/kg Sc, read-out: T½ (converted)) it was 2.5 h. In series [1] (in vivo, SD rat, 100 mg/kg IV BCY11863, read-out: Clp), the clearance was found to be 13 mL/min/kg.
As for `CCCC[C@@H]1NC(=O)[C@H](Cc2ccc(O)cc2)NC(=O)[C@@H]2CCCN2C(=O)[C@H](CC(=O)O)NC(=O)[C@H](C)NC(=O)[C@H](Cc2ccccc2)NC(=O)[C@@H]2CSCCC(=O)N3CN(CN(C3)C(=O)CCSC[C@@H](C(=O)N[C@@H](C)C(N)=O)NC1=O)C(=O)CCSC[C@H](NC(C)=O)C(=O)N[C@@H](CC(C)(C)C)C(=O)N1CCC[C@H]1C(=O)N[C@@H](CCC(=O)O)C(=O)N[C@H](CCCCNC(=O)CCc1cn(CCOCCOCCOCCN(CCOCCOCCOCCC(=O)N[C@H]3CSCCC(=O)N4CN5CN(C4)C(=O)CCSC[C@H](NC(=O)[C@@H](CC(=O)O)NC(=O)[C@H](Cc4cccc6ccccc46)NC(=O)[C@@H]4CCCN4C3=O)C(=O)N[C@@H](CCSC)C(=O)N[C@@H](CCCCNC(=N)N)C(=O)N[C@@H](CC(=O)O)C(=O)N[C@@H](Cc3c[nH]c4ccccc34)C(=O)N[C@@H](CO)C(=O)N[C@@H]([C@@H](C)O)C(=O)N3CCC[C@H]3C(=O)N3C[C@H](O)C[C@H]3C(=O)N[C@@H](Cc3c[nH]c4ccccc34)C(=O)N[C@H](C(N)=O)CSCCC5=O)CCOCCOCCOCCn3cc(CCC(=O)NCCCC[C@H]4NC(=O)[C@H](CCC(=O)O)NC(=O)[C@@H]5CCCN5C(=O)[C@H](CC(C)(C)C)NC(=O)[C@@H](NC(C)=O)CSCCC(=O)N5CN6CN(C5)C(=O)CCSC[C@H](NC(=O)[C@H](Cc5ccc(O)cc5)NC(=O)[C@@H]5CCCN5C4=O)C(=O)N[C@@H](Cc4ccccc4)C(=O)N[C@@H](C)C(=O)N[C@@H](CC(=O)O)C(=O)N4CCC[C@H]4C(=O)N[C@@H](Cc4ccc(O)cc4)C(=O)N[C@@H](CCCC)C(=O)N[C@H](C(=O)N[C@@H](CCCCNC(=O)CCOCCOCCOCCOCCOCCOCCOCCOCCOCCOCCOCCOCCNC(=O)CCCC[C@@H]4SC[C@@H]5NC(=O)N[C@@H]54)C(N)=O)CSCCC6=O)nn3)nn1)C(=O)N1CCC[C@H]1C(=O)N[C@@H](Cc1ccc(O)cc1)C(=O)N2` [BCY13582], the Kd on cyno CD137 came out at 4.23 nM; on human CD137, 8.4 ± 4.2 nM. For the same compound, the Specific off-target interactions result in series [2] is “No specific off-target interactions were identified”.
In series [1] (setting [3]), `CCCC[C@@H]1NC(=O)[C@H](Cc2ccc(O)cc2)NC(=O)[C@@H]2CCCN2C(=O)[C@H](CC(=O)O)NC(=O)[C@H](C)NC(=O)[C@H](Cc2ccccc2)NC(=O)[C@@H]2CSCCC(=O)N3CN(CN(C3)C(=O)CCSC[C@@H](C(=O)N[C@@H](C)C(N)=O)NC1=O)C(=O)CCSC[C@H](NC(C)=O)C(=O)N[C@@H](CC(C)(C)C)C(=O)N1CCC[C@H]1C(=O)N[C@@H](CCC(=O)O)C(=O)N[C@H](CCCCNC(=O)CCc1cn(CCOCCOCCOCCN(CCOCCOCCOCCC(=O)N[C@H]3CSCCC(=O)N4CN5CN(C4)C(=O)CCSC[C@H](NC(=O)[C@@H](CC(=O)O)NC(=O)[C@H](Cc4cccc6ccccc46)NC(=O)[C@@H]4CCCN4C3=O)C(=O)N[C@@H](CCSC)C(=O)N[C@@H](CCCCNC(=N)N)C(=O)N[C@@H](CC(=O)O)C(=O)N[C@@H](Cc3c[nH]c4ccccc34)C(=O)N[C@@H](CO)C(=O)N[C@@H]([C@@H](C)O)C(=O)N3CCC[C@H]3C(=O)N3C[C@H](O)C[C@H]3C(=O)N[C@@H](Cc3c[nH]c4ccccc34)C(=O)N[C@H](C(N)=O)CSCCC5=O)CCOCCOCCOCCn3cc(CCC(=O)NCCCC[C@H]4NC(=O)[C@H](CCC(=O)O)NC(=O)[C@@H]5CCCN5C(=O)[C@H](CC(C)(C)C)NC(=O)[C@@H](N)CSCCC(=O)N5CN6CN(C5)C(=O)CCSC[C@H](NC(=O)[C@H](Cc5ccc(O)cc5)NC(=O)[C@@H]5CCCN5C4=O)C(=O)N[C@@H](Cc4ccccc4)C(=O)N[C@@H](C)C(=O)N[C@@H](CC(=O)O)C(=O)N4CCC[C@H]4C(=O)N[C@@H](Cc4ccc(O)cc4)C(=O)N[C@@H](CCCC)C(=O)N[C@H](C(=O)N[C@@H](C)C(N)=O)CSCCC6=O)nn3)nn1)C(=O)N1CCC[C@H]1C(=O)N[C@@H](Cc1ccc(O)cc1)C(=O)N2` [BCY15155] gave an AUC of 1300 ng·h/mL and a Cmax of 2.85 µg/mL. The half-life in series [1] (setting [4]) was 3.1 h.

As a reminder, the AUC is the area under the concentration-time curve, a measure of exposure. A high value points to high exposure. One may read the Cmax as the highest concentration seen after dosing. As usually defined, the Kd is the free concentration of one partner at which half of the binding sites on the other are occupied at equilibrium, for simple one-to-one binding.

(Values after US11306123B2, “Heterotandem bicyclic peptide complex” (BicycleTx Limited, priority 2019, dated 2022).)
